Source: patent publication EP1090020B1, “2-(PURIN-9-YL)-TETRAHYDROFURAN-3,4-DIOL DERIVATIVES” (GLAXO GROUP LIMITED, priority 1998, dated 1999)

Legend:
Format in all cases: cell-based
[1] = target: human adenosine receptor (adenosine 2a) (Homo sapiens, UniProt P29274); test: Agonist activity against adenosine 2a receptor subtype (CHO cells, cAMP response element/SPAP reporter); settings: transfected CHO cells; effect on basal levels of cAMP reflected by SPAP; ratio to NECA
Protocol: (§1) Compounds of the invention were tested for in vitro and in vivo biological activity in accordance with the following screens: • (1) Agonist activity against adenosine 2a, adenosine 1 and adenosine 3 receptor subtypes. Agonist selectivity of compounds against other human adenosine receptors was determined using Chinese hamster ovary (CHO) cells transfected with the gene for the relevant human adenosine receptor following a method based on that of Castanon and Spevak, 1994 . The CHO cells were also transfected with cyclic AMP response elements promoting the gene for secreted placental alkaline phosphatase (SPAP) (Wood, 1995). The effect of test compounds was determined by their effects on basal levels of CAMP (A2a) or on forskolin-enhanced cAMP (A1 and A3) as reflected by changes in levels of SPAP. EC50 values for compounds were then determined as a ratio to that of the non-selective agonist N-ethyl carboxamide adenosine (NECA).

[2] = target: T1, human adenosine receptor (adenosine 3) (Homo sapiens, UniProt P0DMS8); test: Agonist activity against adenosine 3 receptor subtype (CHO cells, cAMP response element/SPAP reporter); settings: transfected CHO cells; effect on forskolin-enhanced cAMP reflected by SPAP; ratio to NECA
T1 sequence (P0DMS8 1-318): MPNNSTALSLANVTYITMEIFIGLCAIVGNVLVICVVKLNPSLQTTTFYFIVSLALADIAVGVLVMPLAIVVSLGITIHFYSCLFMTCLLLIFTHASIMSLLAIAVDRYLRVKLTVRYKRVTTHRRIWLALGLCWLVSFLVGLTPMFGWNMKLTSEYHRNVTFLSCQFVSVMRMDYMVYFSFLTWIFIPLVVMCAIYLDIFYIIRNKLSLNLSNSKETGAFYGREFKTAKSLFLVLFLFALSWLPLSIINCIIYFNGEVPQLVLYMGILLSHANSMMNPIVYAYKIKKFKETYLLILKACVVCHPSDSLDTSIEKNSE
Protocol: as §1

[3] = target: T2, human adenosine receptor (adenosine 1) (Homo sapiens, UniProt P30542); test: Agonist activity against adenosine 1 receptor subtype (CHO cells, cAMP response element/SPAP reporter); settings: transfected CHO cells; effect on forskolin-enhanced cAMP reflected by SPAP; ratio to NECA
T2 sequence (P30542 1-326): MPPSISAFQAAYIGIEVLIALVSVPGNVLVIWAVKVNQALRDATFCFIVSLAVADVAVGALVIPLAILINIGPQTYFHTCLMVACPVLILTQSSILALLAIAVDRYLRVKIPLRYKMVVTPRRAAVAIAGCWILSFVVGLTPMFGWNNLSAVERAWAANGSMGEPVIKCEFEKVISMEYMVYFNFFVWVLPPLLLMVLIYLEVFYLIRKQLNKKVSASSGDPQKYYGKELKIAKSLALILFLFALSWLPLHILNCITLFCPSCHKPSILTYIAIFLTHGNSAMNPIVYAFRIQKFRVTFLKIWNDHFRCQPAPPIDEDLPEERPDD
Protocol: as §1

Chain of human adenosine receptor (adenosine 2a) (P29274 whole entry): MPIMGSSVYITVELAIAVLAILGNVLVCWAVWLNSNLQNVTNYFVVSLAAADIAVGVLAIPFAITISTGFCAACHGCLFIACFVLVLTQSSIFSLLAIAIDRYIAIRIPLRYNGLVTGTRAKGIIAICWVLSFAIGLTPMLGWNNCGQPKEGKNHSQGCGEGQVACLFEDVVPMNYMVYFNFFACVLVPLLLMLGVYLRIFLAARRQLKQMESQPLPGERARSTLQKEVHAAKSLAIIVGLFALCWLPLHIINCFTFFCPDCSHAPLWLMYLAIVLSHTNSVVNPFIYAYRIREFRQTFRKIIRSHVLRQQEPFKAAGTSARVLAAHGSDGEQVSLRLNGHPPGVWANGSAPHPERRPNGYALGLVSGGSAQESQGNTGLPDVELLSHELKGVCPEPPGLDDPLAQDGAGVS

Compound | A2a; EC50 values as a ratio of that of NECA [1] | A3; EC50 values as a ratio of that of NECA [2] | A1; EC50 values as a ratio of that of NECA [3]
CC(C)[C@@H](CO)Nc1nc(NCC(c2ccccc2)c2ccccc2)c2ncn([C@@H]3O[C@H](c4nnc[nH]4)[C@@H](O)[C@H]3O)c2n1.O=CO [Example 4, (2R,3R,4S,5R)-2-[6-(2,2-Diphenyl-ethylamino)-2-(1S-hydroxymethyl-2-methyl-propylamino)-purin-9-yl]-5-(4H-[1,2,4]triazol-3-yl)-tetrahydro-furan-3,4-diol formate] | 3.79 | > 306 | 670.92
N=C(N)NCCNc1nc(NCC(c2ccccc2)c2ccccc2)c2ncn([C@@H]3O[C@H](c4nnc[nH]4)[C@@H](O)[C@H]3O)c2n1.O=CO [Example 7, N-{2-[9-[3R,4S-Dihydroxy-5R-(4H-[1,2,4]triazol-3-yl)-tetrahydro-furan-2R-yl]-6-(2,2-diphenyl-ethylamino)-9H-purin-2-ylamino]-ethyl}-guanidine formate] | 19.01 | > 368 | 2577
O=CO.O[C@@H]1[C@H](O)[C@@H](c2nnc[nH]2)O[C@H]1n1cnc2c(NCC(c3ccccc3)c3ccccc3)nc(NC3CCCC3)nc21 [Example 6, (2R,3R,4S,5R)-2-[2-Cyclopentylamino-6-(2,2-diphenyl-ethylamino)-purin-9-yl]-5-(4H-[1,2,4]triazol-3-yl)-tetrahydro-furan-3,4-diol formate] | 16.96 | > 305 | 1627
O=CO.O[C@@H]1[C@H](O)[C@@H](c2nnc[nH]2)O[C@H]1n1cnc2c(NCC(c3ccccc3)c3ccccc3)nc(NCCc3ccccn3)nc21 [Example 5, (2R,3R,4S,5R)-2-[6-(2,2-Diphenyl-ethylamino)-2-(2-pyridin-2-yl-ethylamino)-purin-9-yl]-5-(4H-[1,2,4]triazol-3-yl)-tetrahydro-furan-3,4-diol formate] | 19.3 | > 397 | 3329
Cn1cnc(CCNc2nc(NCC(c3ccccc3)c3ccccc3)c3ncn([C@@H]4O[C@H](c5nnc[nH]5)[C@@H](O)[C@H]4O)c3n2)c1.O=CO [Example 2, (2R,3R,4S,5R)-2-{6-(2,2-Diphenyl-ethylamino)-2-[2-(1-methyl-1H-imidazol-4-yl)-ethylamino]-purin-9-yl}-5-(4H-[1,2,4]triazol-3-yl)-tetrahydro-furan-3,4-diol formate] | 1.08 | > 430 | 1003.4
O=CO.O[C@@H]1[C@H](O)[C@@H](c2nnc[nH]2)O[C@H]1n1cnc2c(NCC(c3ccccc3)c3ccccc3)nc(N[C@@H]3CCNC3)nc21 [Example 3, (2R,3R,4S,5R)-2-[6-(2,2-Diphenyl-ethylamino)-2-(pyrrolidin-3R-ylamino)-purin-9-yl]-5-(4H-[1,2,4]triazol-3-yl)-tetrahydro-furan-3,4-diol formate] | 10.49 | > 306 | 586.92
O=CO.O[C@@H]1[C@H](O)[C@@H](c2nnc[nH]2)O[C@H]1n1cnc2c(NCC(c3ccccc3)c3ccccc3)nc(NCCN3CCCCC3)nc21 [Example 9, (2R,3R,4S,5R)-2-[6-(2,2-Diphenyl-ethylamino)-2-(2-piperidin-1-yl-ethylamino)-purin-9-yl]-5-(4H-[1,2,4]triazol-3-yl)-tetrahydro-furan-3,4-diol formate] | 8.13 | > 472 | 969.8
O=CO.OC[C@H](Cc1ccccc1)Nc1nc(NCC(c2ccccc2)c2ccccc2)c2ncn([C@@H]3O[C@H](c4nnc[nH]4)[C@@H](O)[C@H]3O)c2n1 [Example 8, (2R,3R,4S,5R)-2-[6-(2,2-Diphenyl-ethylamino)-2-(1S-hydroxymethyl-2-phenyl-ethylamino)-purin-9-yl]-5-(4H-[1,2,4]triazol-3-yl)-tetrahydro-furan-3,4-diol formate] | 26.74 | > 326 | 280.97
N[C@H]1CC[C@H](Nc2nc(NCC(c3ccccc3)c3ccccc3)c3ncn([C@@H]4O[C@H](c5nnc[nH]5)[C@@H](O)[C@H]4O)c3n2)CC1.O=CO [Example 1, (2R,3R,4S,5R)-2-[2-(trans-4-Amino-cyclohexylamino)-6-(2,2-diphenyl-ethylamino)-purin-9-yl]-5-(4H-[1,2,4]triazol-3-yl)-tetrahydro-furan-3,4-diol formate] | 11.37 | > 353 | 1098
